Converted amounts (≈) assume the structure as drawn. Read-outs that look alike come from different tables or passages of the source.
Experiments:
[1] = MIC by broth microdilution in CAMHB, clinical isolates; type: cell-based, Mycobacterium chelonae; details: for MIC: read-out: MIC
[2] = system: M. abscessus subsp. abscessus CIP 104536; assay: Time-kill kinetics assay; type: cell-based
Description: Briefly, M. abscessus cultures were exposed to antimicrobial drugs at 4-fold increasing concentrations for 7 days at 37° C. under shaking conditions at 96 rpm. […] The drug concentrations ranged from 0.063 to 256 mg/L for both compounds. […] At day 1, 3 and 7 during drug exposure, samples were collected, centrifuged at 14000 xg to avoid anti-NTM drug carry over, serially diluted (10-fold, 10^0-10^7) and subcultured onto solid medium. […] The lower limit of detection was 5 cfu/mL (log 0.7). All experiments were performed in duplicate. Time-kill curves, as well as concentration-effect curves were generated.

[3] = Stability of antimicrobial drugs, large-plate agar diffusion assay; type: physicochemical; details: within the first 24 hours
Description: Antimicrobial activity over time was assessed using the standard large-plate agar diffusion assay as previously described in detail (Bennett et al., Appl. Microbiol. 1966, 14 (2): 170-7). In short, a Staphylococcus aureus strain susceptible to omadacycline and a Micrococcus luteus strain susceptible to tigecycline were plated onto solid diagnostic sensitivity test (D.S.T.) agar (Oxoid, Hampshire, UK). A two-fold increasing standard concentration series was prepared.

[4] = system: Bacille Calmette Guerin (BCG); type: cell-based, Mycobacterium bovis; details: disk: 15 μg of omadacycline
[5] = Intra-pulmonary steady-state concentrations (plasma, ELF, alveolar cells) after multiple IV doses in healthy adult subjects; type: in vivo, human; details: human, in vivo
Description: The remaining 20 subjects received tigecycline as 1 intravenous dose of 100 mg administered as a 30 minute infusion at t=0, followed by 6 intravenous doses of 50 mg administered as 30 minute infusions at t=12, 24, 36, 48, 60, and 72 hours. A study completion visit was conducted on the day following the final test article dose. There was a final follow-up assessment 7 to 14 days following the subject's last dose of test article which may be completed by telephone contact or other interactive technology unless an examination was needed to evaluate adverse events or abnormalities noted at the study completion visit.
Plasma PK samples were collected pre-dose and at 0.5, 1, 1.5, 2, 3, 4, 6, 8, 12 and 24 hours post-dose on day 4. […] One BAL sample was collected from each subject on day 4. Subjects were randomized to one of the following collection times: 0.5, 1, 2, 4, 8, 12 or 24 hours post-dose.

[6] = system: slow-growing NTM isolates; assay: MIC (CLSI broth dilution), all slow-growing NTM isolates; type: cell-based, nontuberculous mycobacteria; details: small number of SGM isolates
[7] = in vivo; cited from earlier work
[8] = system: M. abscessus subsp. abscessus CIP 104536; assay: MIC according to CLSI guidelines; details: Mycobacteroides abscessus, CIP104536, read-out: Minimal Inhibitory Concentration (MIC)
Description: Vials with M. abscessus suspensions were stored at −80° C. Cultures on solid medium were grown on Mueller Hinton II agar (BD), supplemented with 10% OADC and 0.5% glycerol for 10 days at 37° C. with 5% CO2.

[9] = Alveolar Macrophages (AM) concentration (mean ± SD)
[10] = Epithelial lining fluid (ELF) concentration (mean ± SD)
[11] = Plasma concentration (mean ± SD)
[12] = Ratio of Omadacycline Concentrations in Alveolar Cells to Plasma (Mean, SD)
[13] = Ratio of Omadacycline Concentrations in Epithelial Lining Fluid to Plasma (Mean, SD)

SMILES: CN(C)c1cc(CNCC(C)(C)C)c(O)c2c1C[C@H]1C[C@H]3C(N(C)C)C(O)=C(C(N)=O)C(=O)[C@@]3(O)C(O)=C1C2=O (stereo partly drawn) [Omadacycline, (4aS,5aR,12aS)-4,7-bis(dimethylamino)-3,10,12,12a-tetrahydroxy-9-((neopentylamino)methyl)-1,11-dioxo-1,4,4a,5,5a,6,11,12a-octahydrotetracene-2-carboxamide]
- MIC90 ([1]; 22 clinical isolates, read-out: MIC90): 0.25 µg/mL (≈ 0.449 µM)
- MIC ([1]; isolate No. 1, MC 7323): 0.125 µg/mL (≈ 0.225 µM)
- MIC ([1]; isolate No. 2, MC 7534): 0.03 µg/mL (≈ 0.0539 µM)
- MIC ([1]; isolate No. 3, MC 7368): 0.03 µg/mL (≈ 0.0539 µM)
- MIC ([1]; isolate No. 4, MC 7514): 0.06 µg/mL (≈ 0.108 µM)
- MIC ([1]; isolate No. 5, MC 7584): 0.06 µg/mL (≈ 0.108 µM)
- MIC ([1]; isolate No. 6, MC 7192): 0.015 µg/mL (≈ 0.0269 µM)
- MIC ([1]; isolate No. 7, MC 7466): 0.03 µg/mL (≈ 0.0539 µM)
- MIC ([1]; isolate No. 8, MC 7533): 0.25 µg/mL (≈ 0.449 µM)
- MIC ([1]; isolate No. 9, MC 7579): 0.125 µg/mL (≈ 0.225 µM)
- MIC ([1]; isolate No. 10, MC 7614): 0.125 µg/mL (≈ 0.225 µM)
- MIC ([1]; isolate No. 11, MC 7414): 0.125 µg/mL (≈ 0.225 µM)
- MIC ([1]; isolate No. 12, MC 7313): 0.125 µg/mL (≈ 0.225 µM)
- MIC ([1]; isolate No. 13, MC 7281): 0.25 µg/mL (≈ 0.449 µM)
- MIC ([1]; isolate No. 14, MC 7328): 0.015 µg/mL (≈ 0.0269 µM)
- MIC ([1]; isolate No. 15, MC 7294): 0.25 µg/mL (≈ 0.449 µM)
- MIC ([1]; isolate No. 16, MC 14-S-03): 0.06 µg/mL (≈ 0.108 µM)
- MIC ([1]; isolate No. 17, MC 14-S-04): 0.06 µg/mL (≈ 0.108 µM)
- MIC ([1]; isolate No. 18, MC 14-S-05): 0.125 µg/mL (≈ 0.225 µM)
- MIC ([1]; isolate No. 19, MC 14-S-06): 0.03 µg/mL (≈ 0.0539 µM)
- MIC ([1]; isolate No. 20, MC 14-S-07): 0.06 µg/mL (≈ 0.108 µM)
- MIC ([1]; isolate No. 21, MC 35757): 0.125 µg/mL (≈ 0.225 µM)
- MIC ([1]; isolate No. 22, MC 7302): 0.25 µg/mL (≈ 0.449 µM)
- concentration for 1 log mycobacterial killing ([2]; after 7 days of exposure): 4.0 mg/L
- concentration for 2 log mycobacterial killing ([2]; after 7 days of exposure): 4.8 mg/L
- concentration for stasis (concentration-effect curve) ([2]; after 7 days of exposure): 3.3 mg/L
- concentrations achieving elimination ([2]; time-kill, at day 3-7): no elimination was achieved
- concentration showing inhibition of mycobacterial growth ([2]; time-kill, up to 7 days exposure): 4 mg/L
- decline in concentration [3]: 20%
- Results/Observations (growth) [4]: Markedly decreased growth around
- Free-drug AUC72-96, Plasma (Median) [5]: 9610 ng·h/mL
- AUC ([5]; AUCmean, Alveolar Cells (AC)): 302000 ng·h/mL
- AUC ([5]; AUCmean, Epithelial Lining Fluid (ELF)): 17200 ng·h/mL
- AUC ([5]; AUCmean, Plasma): 11700 ng·h/mL
- AUC ([5]; AUCmedian, Alveolar Cells (AC)): 292000 ng·h/mL
- AUC ([5]; AUCmedian, Epithelial Lining Fluid (ELF)): 16700 ng·h/mL
- AUC ([5]; AUCmedian, Plasma): 11800 ng·h/mL
- concentration at 0.5 h [5, 9]: 14300 ± 9300 ng/mL
- concentration at 1 h [5, 9]: 12800 ± 8480 ng/mL
- concentration at 2 h [5, 9]: 10800 ± 7590 ng/mL
- concentration at 4 h [5, 9]: 18000 ± 7170 ng/mL
- concentration at 8 h [5, 9]: 12300 ± 4700 ng/mL
- concentration at 12 h [5, 9]: 12300 ± 4610 ng/mL
- concentration at 24 h [5, 9]: 10400 ± 4040 ng/mL
- concentration at 0.5 h [5, 10]: 1730 ± 1010 ng/mL
- concentration at 1 h [5, 10]: 2250 ± 720 ng/mL
- concentration at 2 h [5, 10]: 1510 ± 940 ng/mL
- concentration at 4 h [5, 10]: 950 ± 330 ng/mL
- concentration at 8 h [5, 10]: 580 ± 190 ng/mL
- concentration at 12 h [5, 10]: 610 ± 290 ng/mL
- concentration at 24 h [5, 10]: 410 ± 130 ng/mL
- Kp ([5]; Penetration Ratio: total-drug ELF AUC72-96 to free-drug plasma AUC72-96 (Median)): 1.93
- Kp ([5]; Penetration ratio AC:Plasma based on AUCmean): 25.8
- Kp ([5]; Penetration ratio AC:Plasma based on AUCmedian): 24.8
- Kp ([5]; Penetration ratio ELF:Plasma based on AUCmean): 1.47
- Kp ([5]; Penetration ratio ELF:Plasma based on AUCmedian): 1.42
- concentration at 0.5 h [5, 11]: 1800 ng/mL
- concentration at 1 h [5, 11]: 890 ng/mL
- concentration at 2 h [5, 11]: 930 ng/mL
- concentration at 4 h [5, 11]: 590 ng/mL
- concentration at 8 h [5, 11]: 560 ng/mL
- concentration at 12 h [5, 11]: 420 ng/mL
- concentration at 24 h [5, 11]: 270 ng/mL
- Kp at 0.5 h [5, 12]: 8.12 ± 5.95
- Kp at 1 h [5, 12]: 13.8 ± 7.38
- Kp at 2 h [5, 12]: 12.3 ± 6.57
- Kp at 4 h [5, 12]: 34.7 ± 15.1
- Kp at 8 h [5, 12]: 23.1 ± 11.2
- Kp at 12 h [5, 12]: 29 ± 8.78
- Kp at 24 h [5, 12]: 40.3 ± 10.3
- Kp at 0.5 h [5, 13]: 0.95 ± 0.56
- Kp at 1 h [5, 13]: 2.72 ± 1.26
- Kp at 2 h [5, 13]: 1.5 ± 0.61
- Kp at 4 h [5, 13]: 1.79 ± 0.49
- Kp at 8 h [5, 13]: 1.07 ± 0.45
- Kp at 12 h [5, 13]: 1.44 ± 0.57
- Kp at 24 h [5, 13]: 1.65 ± 0.86
- AUC ([5]; Total-drug AUC72-96, ELF (Median)): 18500 ng·h/mL
- Kp ([5]; concentration in epithelial lining fluid relative to plasma): > 1.4
- Cmax ([5]; iv, 100 mg): 2260 ± 760 ng/mL
- Vd ([5]; iv, 100 mg): 165 ± 58 L
- Kp ([5]; mean concentration in alveolar cells relative to plasma): ~25
- Kp ([5]; mean concentration in epithelial lining fluid higher than in plasma): ≥ 0.4
- activity against SGM isolates (in words) [6]: MIC values above the highest concentration evaluated
- 24-hour area under the curve compared to tigecycline [7]: approximately three-fold higher
- MIC [8]: 4 µg/mL (≈ 7.19 µM)

Reference: US20250332178A1, “METHODS OF TREATING MYCOBACTERIAL INFECTIONS USING TETRACYCLINE COMPOUNDS” (priority 2018, published 2025)
